Results reported in article PMC7948455, “Novel drug discovery platform for spinocerebellar ataxia, using fluorescence technology targeting β-III-spectrin” (The Journal of Biological Chemistry, 2020).

Columns and labels:
[1] = molecular target: T1, Lifeact-mCherry binding to actin (Oryctolagus cuniculus, UniProt P68135); assay: F-actin and Lifeact-mCherry cosedimentation assay
T1 construct: from tissue; host or cells: actin: rabbit psoas muscle; Lifeact-mCherry: made in house in E. coli (pE-SUMOpro)
Experimental: Actin was purified from acetone powder derived from the psoas muscle of New Zealand white rabbit (Oryctolagus cuniculus) ([46]). Filamentous (F)-actin was stored for up to 3 days on ice before use in binding assays. Within an hour of the binding assay, the F-actin was clarified at 100,000g at 4 °C for 10 min prior to setting up binding assays. The L253P β-III-spectrin ABD was expressed in E. coli BL21(DE3) (Novagen). The ABD was purified and the His-SUMO tag proteolytically removed, as previously described ([14]), except size-exclusion chromatography was not performed due to the high purity of the ABD protein. Lifeact-mCherry protein was similarly prepared. A Bradford assay was performed to determine clarified F-actin and ABD protein concentrations.
F-actin and ABD binding assays were performed as previously described ([10]). In brief, binding assays used 1 μM ABD protein, 1 μM F-actin, and 1 to 50 μM compound (as indicated) or DMSO control for a total reaction volume of 60 μl in F-buffer containing 10 mM Tris, pH 7.5, 150 mM NaCl, 0.5 mM ATP, 2 mM MgCl2, and 1 mM DTT. Following 30 min incubation at room temperature (21 °C). F-actin was pelleted using centrifugation at 100,000g at 25 °C for 30 min. Unbound ABD in the supernatant was measured following SDS-PAGE and Coomassie blue staining in accord ([10]). In addition, control cosedimentations assays that lacked actin were performed to test if compounds cause ABD aggregation. F-actin and Lifeact-mCherry binding assays were undertaken with 2 μM Lifeact-mCherry, 30 μM F-actin, and 1 to 50 μM compound (as indicated) or DMSO control for a total reaction volume of 80 μl in F-buffer. For a no-actin binding control, an assay sample with no F-actin was also set up. Binding reactions were allowed to reach equilibrium at room temperature (21 °C) for 30 min, and then F-actin was pelleted by centrifugation at 100,000g at 25 °C for 30 min. The amount of unbound Lifeact-mCherry was sampled by loading 7 μl of spin supernatant on a low-volume black bottom 384-well plate (Greiner). Amount of mCherry was determined by acquiring fluorescence spectrum peak intensity at ∼600 nm using a spectral unmixing plate reader (Fluorescence Innovations, Inc) equipped with a 532 nm laser (Laserglow Technologies, Ontario, Canada) for excitation, 532 nm long-pass filter for emission, and PMT for emission detection. The fraction of Lifeact-mCherry bound to F-actin was determined by subtracting from one the fraction of supernatant fluorescence intensity relative to the no-actin control sample:(3) Lifeactboundfraction=1−Fcompound/DMSO/FNo−actin where Fcontrol/DMSO is the peak mCherry fluorescence of assay samples containing compound or DMSO control, and Fno-actin is the peak mCherry fluorescence of assay samples that contained no F-actin.

mammalian cells = details: 10 μM ref 36, 37, 38; cited from earlier work

O=C(O)c1cc([N+](=O)[O-])ccc1NCCCc1ccccc1 [NPPB]
Effect on actin-Lifeact cosedimentation ([1]; 10 μM Hit compound): decreased

CCCCCCCC/C=C\CCCCCCCC(=O)NCc1ccc(O)c(OC)c1 [olvanil]
Reduction of cell viability (mammalian cells): < 10%

CO[C@H]1C[C@H](CC[C@H](C)[C@H](O)[C@H](C)[C@H]2OC(=O)/C=C/C(C)=C/C[C@H](O)C[C@@H]3C=CC[C@@H](C[C@H](OC)[C@@H](C)[C@@H](O)C[C@@H](O)[C@H](C)[C@@H]([C@@H](C)[C@@H](O)[C@@H](C)CC[C@H]4C[C@H](OC)C[C@H](C)O4)OC(=O)/C=C/C(C)=C/C[C@H](O)C[C@@H]4C=CC[C@@H](C[C@H](OC)[C@@H](C)[C@@H](O)C[C@@H](O)[C@@H]2C)O4)O3)O[C@@H](C)C1 [swinholide A]
Effect on Lifeact-mCherry cosedimentation with actin ([1]; 3 μM swinholide A, 50 μM tegaserod): reduces
